Patent US20100267742A1, “COMBINATION TARGETED THERAPY FOR LUNG CANCER” (RUSH UNIVERSITY MEDICAL CENTER, priority 2009, published 2010)
Entries after “also recorded” stand apart in the source; their conditions may differ.

How the values were obtained:
Type in all cases: cell-based, human
[1] = tested on: kinase and receptor phosphorylation in Calu3 cells; experiment: Western blot with anti-phospho antibodies on lysates of serum-starved cells; conditions: for Akt (ser473) phosphorylation / EGFR (Y1068) phosphorylation: low doses alone versus combination
Experimental: (§1) Lysates were prepared for immunoprecipitation and Western blotting from serum-starved Calu3 and H1975 cell lines after incubation with kinase inhibitors, including enzastaurin for PKCβ, and SU11274 for c-met. Specific site directed anti-phospho-antibodies were used to probe Western blots to determine the effect of respective inhibitors on downstream kinase activation. Proliferation and cell viability assays were performed with 10,000 cells seeded into 96-well plates and incubated with inhibitors in serum-starved cultures for 72 hours. Cell viability was determined by the addition of Calcein-AM (calcein-acetoxymethyl ester, diacetate) for the final 2 hours and plates were read at 515 nm. Antibodies: Anti-EGFR, antiphospho-EGFR (Tyr845), anti-phospho-EGFR (Tyr1068), anti-phospho-Akt (Ser473), anti phospho-Erk1,2 (Thr202/Tyr204), anti-phospho-PKCα,β) were purchased from Cell Signaling. Cell cultures: Cells were serum starved for 18-24 hours prior to incubation with kinase inhibitors. Enzastaurin was added for a minimum of 3.5 hours of culture and SU11274 for at least one hour before preparation of lysates. Cell lysates: Media were removed from confluent monolayers of cells immediately before addition of lysis buffer (1 μg/ml aprotinin, 1 μg/ml leupeptin, 200 μM sodium vanadate (NaVO4), 0.1% NP-40, […], 20 mM EDTA, 1 mM PMSF in 50 mM Tris-HCl (pH 7.5). Cells were harvested and sonicated in lysis buffer. After 15 minutes on ice, lysates were microcentrifuged for 20 minutes. Supernatants were removed and protein concentrations therein determined spectrophotometrically with protein detection reagent. Western blots: 10-30 μg of lysate were mixed with loading buffer and boiled before loading into 7.5% Tris-HCl pre-cast SDS-PAGE gels for electrophoresis in SDS-glycine buffer for 90 minutes. Separated proteins were transferred from the gel to Hybond ECL nitrocellulose membrane using a Trans-Blot SD semi-dry transfer cell apparatus. The transfer ran at 20 volts for 35-40 minutes. Nitrocellulose membranes were washed in 1×Tris Buffered Saline-0.1% Tween 20 (TBS-T) then blocked with 5% BSA or 5% milk in TBS-T on rotator for one hour at room temperature or overnight at 4° C. 0.2% Sodium Azide (NaN3) was added to all blocking and primary antibody solutions. Nitrocellulose membranes were probed with 1:1000 or 1:2000 primary antibody.

[2] = tested on: Calu3 cells; experiment: Cell proliferation / cell survival (viability) assay, Calcein-AM, 72 hours; conditions: for cell survival / cell viability / sensitivity: Calu3, 72 hours in culture, serum-starved; for effect on cell number (3-factor ANOVA): Calu3 cell line, no EGFR mutation, alone or in combination
Experimental: (§2) Lysates were prepared for immunoprecipitation and Western blotting from serum-starved Calu3 and H1975 cell lines after incubation with kinase inhibitors, including enzastaurin for PKCβ, and SU11274 for c-met. Specific site directed anti-phospho-antibodies were used to probe Western blots to determine the effect of respective inhibitors on downstream kinase activation. Proliferation and cell viability assays were performed with 10,000 cells seeded into 96-well plates and incubated with inhibitors in serum-starved cultures for 72 hours. Cell viability was determined by the addition of Calcein-AM (calcein-acetoxymethyl ester, diacetate) for the final 2 hours and plates were read at 515 nm. Lung carcinoma cell lines: H1975 and Calu-3 were cultured following ATCC guidelines. Cells are removed from flasks with cell dissociation buffer in PBS.

[3] = tested on: H1975 cells; experiment: as above; conditions: H1975 cell line, two EGFR mutations, alone or in combination
Experimental: as §2

[4] = tested on: kinase phosphorylation in H1975 cells; experiment: Western blot with anti-phospho antibodies on lysates of serum-starved cells
Experimental: as §1

SMILES | Akt (ser473) phosphorylation ([1]; Calu3) | EGFR (Y1068) phosphorylation ([1]; Calu3) | cell survival / cell viability / sensitivity [2] | effect on cell number (3-factor ANOVA) ([2]; listed as SU) | effect on cell number (3-factor ANOVA) ([3]; listed as SU) | c-met phosphorylation ([1]; Calu3) | erbB3 phosphorylation ([1]; Calu3) | phosphorylation of PKC family members (pan-antibody against common phosphorylation sites) ([1]; Calu3) | sic phosphorylation ([1]; Calu3) | PKCαβ phosphorylation ([1]; Calu3, 3.5 hours in culture, serum-free medium) | sic phosphorylation ([4]; H1975) | PKCαβ phosphorylation ([4]; H1975, short-term incubation, serum-free medium) | effect on cell number (3-factor ANOVA) ([2]; listed as Enzo 150) | effect on cell number (3-factor ANOVA) ([3]; listed as Enza150) | effect on cell number (3-factor ANOVA) ([3]; listed as Enzo150)
Cc1[nH]c(/C=C2\C(=O)Nc3ccc(S(=O)(=O)N(C)c4cccc(Cl)c4)cc32)c(C)c1C(=O)N1CCN(C)CC1 [SU11274] | only minimal effects | only minimal effects | significantly decreases the numbers of NSCLC cells | significant effect | neither SU nor Enzo150 alone has a significant effect; also recorded: not significantly effective |  |  |  |  |  |  |  |  |  | 
Cn1cc(C2=C(c3cn(C4CCN(Cc5ccccn5)CC4)c4ccccc34)C(=O)NC2=O)c2ccccc21 [enzastaurin] | only minimal effects | only minimal effects | greatest sensitivity; also recorded: significantly decreases the numbers of NSCLC cells |  |  | decreased | decreased | does not inhibit phosphorylation of all PKC family members | substantially decreased | dose dependent inhibition; also recorded: inhibited | only a moderate effect | inhibited | significant effect | not significantly effective | neither SU nor Enzo150 alone has a significant effect
